Laboratory results: patent US5449692A, “Substituted (arylalkylaminobenzyl) aminopropionamide derivatives and process for their preparation” (Farmitalia Carlo Erba S.r.l., priority 1993, dated 1995)
Where a name gives a salt, the structure may show the parent alone.

Columns and labels:
[1] = antagonism of maximal electroshock seizures (MES); assay type: in vivo; conditions: MES test; read-out: MES - ED50 (effective dose in 50% of treated animals)
in vivo = test: in vivo
Experimental: The neurotoxicity of the compounds and of the reference anticonvulsants was assessed with the rotorod test (Dunan and Miye, J. Am. Pharm. Ass. Sci. Ed., 1957, 46, 208; Kinnard et al. J. Pharmacol. Exp. Ther. 1957, 121, 354; Horowitz, Nature, 1963, 200, 369).
For instance, following Table 1 summarizes the activity and neurotoxicity data obtained in the MES test and in the rotorod test, respectively, for a representative group of compounds according to the present invention, in comparison with the prior art compound 2-(4-benzyl-aminobenzyl)aminopropanamide, dihydrochloride (internal code FCE 26749) which is known from WO-90/14334.
TD50 means toxic dose in 50% of treated animals

Compound | ED50 [1] | TD50 (in vivo) | selectivity ratio (in vivo)
CC(NCc1ccc(NCc2ccccc2)cc1)C(N)=O (stereo not drawn) [FCE 26749, 2-(4-benzyl-aminobenzyl)aminopropanamide, dihydrochloride, reference compound] | 9.5 mg/kg | 217 mg/kg | 23
CC(NCc1ccc(NCc2ccc(F)cc2)cc1)C(N)=O.Cl.Cl (stereo not drawn) [FCE 28640, 2-[4-(4-fluorobenzyl)aminobenzyl]aminopropanamide, dihydrochloride] | 26.5 mg/kg | 1680 mg/kg | 63
CC(NCc1ccc(NCc2ccc(Cl)cc2)cc1)C(N)=O.Cl.Cl (stereo not drawn) [FCE 28622, 2-[4-(4-chlorobenzyl)aminobenzyl]aminopropanamide, dihydrochloride] | 18.7 mg/kg | 1640 mg/kg | 88
CC(NCc1ccc(NCCc2ccccc2)cc1)C(N)=O.Cl.Cl (stereo not drawn) [FCE 28623, 2-[4-(2-phenylethyl)aminobenzyl]aminopropanamide, dihydrochloride] | 17.1 mg/kg | 917 mg/kg | 54
CC(NCc1ccc(NCc2cccc(Cl)c2)cc1)C(N)=O.Cl.Cl (stereo not drawn) [FCE 28714, 2-[4-(3-chlorobenzyl)aminobenzyl]aminopropanamide, dihydrochloride] | 11.3 mg/kg | 663 mg/kg | 59
CC(NCc1ccc(NCc2ccc(Br)cc2)cc1)C(N)=O.Cl.Cl (stereo not drawn) [FCE 28639, 2-[4-(4-bromobenzyl)aminobenzyl]aminopropanamide, dihydrochloride] | 29.1 mg/kg | 1900 mg/kg | 65
C[C@H](NCc1ccc(NCc2cccc(F)c2)cc1)C(N)=O [FCE 27232, 2-[4-(3-fluorobenzyl)aminobenzyl]aminopropanamide, dihydrochloride] | 6.4 mg/kg | 516 mg/kg | 81
